Experimental data as given in PubChem BioAssay AID1918956 (Molecular Pharmacology Branch, DTP, NCI, 2023).

Test system: OVCAR-5 complex spheroids, viability
Assay: Anticancer human tumor OVCAR-5 cell line growth inhibition;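 also: spheroids exposed to agents for seven days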;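 as to viability, T/C: 100% = DMSO vehicle control wells viability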
Details: for IC50: curve of first compound; for viability, T/C: stronger effect = lower value
How it was run: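 Complex spheroids of tumor cells with HUVEC and human MSCs, exposed to iadademstat combined with other agents. Each agent tested in half-log steps from near clinical Cmax (else 10 microM top), DMSO ≤0.25%.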

[1] = second compound 0.1 µM, first compound 0.000316 µM
[2] = second compound 0.1 µM, first compound 0.001 µM
[3] = second compound 0.1 µM, first compound 0.00316 µM
[4] = second compound 0.1 µM, first compound 0.01 µM
[5] = second compound 0.1 µM, first compound 0.0316 µM
[6] = second compound 0.1 µM, first compound 0.1 µM
[7] = second compound 0.316 µM, first compound 0.000316 µM
[8] = second compound 0.316 µM, first compound 0.001 µM
[9] = second compound 0.316 µM, first compound 0.00316 µM
[10] = second compound 0.316 µM, first compound 0.01 µM
[11] = second compound 0.316 µM, first compound 0.0316 µM
[12] = second compound 0.316 µM, first compound 0.1 µM
[13] = second compound 1 µM, first compound 0.000316 µM
[14] = second compound 1 µM, first compound 0.001 µM
[15] = second compound 1 µM, first compound 0.00316 µM
[16] = second compound 1 µM, first compound 0.01 µM
[17] = second compound 1 µM, first compound 0.0316 µM
[18] = second compound 1 µM, first compound 0.1 µM
[19] = second compound 3.16 µM, first compound 0.000316 µM
[20] = second compound 3.16 µM, first compound 0.001 µM
[21] = second compound 3.16 µM, first compound 0.00316 µM
[22] = second compound 3.16 µM, first compound 0.01 µM
[23] = second compound 3.16 µM, first compound 0.0316 µM
[24] = second compound 3.16 µM, first compound 0.1 µM
[25] = second compound 10 µM, first compound 0.000316 µM
[26] = second compound 10 µM, first compound 0.001 µM
[27] = second compound 10 µM, first compound 0.00316 µM
[28] = second compound 10 µM, first compound 0.01 µM
[29] = second compound 10 µM, first compound 0.0316 µM
[30] = second compound 10 µM, first compound 0.1 µM

CC(C)CC(NC(=O)C(Cc1ccccc1)NC(=O)c1cnccn1)B(O)O (stereo not given) + NC1CCC(NC2CC2c2ccccc2)CC1
IC50 (second compound 0.1 µM): 7.78 nM
IC50 (second compound 0.316 µM): 8.49 nM
IC50 (second compound 1 µM): 7.89 nM
IC50 (second compound 3.16 µM): 7.42 nM
IC50 (second compound 10 µM): 6.4 nM
viability, T/C [1]: 92%
viability, T/C [2]: 100%
viability, T/C [3]: 84.3%
viability, T/C [4]: 39.5%
viability, T/C [5]: 16.2%
viability, T/C [6]: 6.2%
viability, T/C [7]: 97.3%
viability, T/C [8]: 97.9%
viability, T/C [9]: 87.4%
viability, T/C [10]: 42.6%
viability, T/C [11]: 16.1%
viability, T/C [12]: 5.03%
viability, T/C [13]: 88.6%
viability, T/C [14]: 98.8%
viability, T/C [15]: 85.2%
viability, T/C [16]: 39.9%
viability, T/C [17]: 15.4%
viability, T/C [18]: 5.03%
viability, T/C [19]: 79.8%
viability, T/C [20]: 104%
viability, T/C [21]: 78.6%
viability, T/C [22]: 39%
viability, T/C [23]: 13.6%
viability, T/C [24]: 4.87%
viability, T/C [25]: 84.4%
viability, T/C [26]: 82.3%
viability, T/C [27]: 73.4%
viability, T/C [28]: 35.1%
viability, T/C [29]: 10.2%
viability, T/C [30]: 3.83%

CC(C)CC(NC(=O)CNC(=O)c1cc(Cl)ccc1Cl)B1OC(=O)CC(CC(=O)O)(C(=O)O)O1 (stereo not given) + NC1CCC(NC2CC2c2ccccc2)CC1
IC50 (second compound 0.1 µM): > 100 nM
IC50 (second compound 0.316 µM): > 100 nM
IC50 (second compound 1 µM): > 100 nM
IC50 (second compound 3.16 µM): > 100 nM
IC50 (second compound 10 µM): > 100 nM
viability, T/C [1]: 96.8%
viability, T/C [2]: 95%
viability, T/C [3]: 108%
viability, T/C [4]: 91.5%
viability, T/C [5]: 89.7%
viability, T/C [6]: 71.8%
viability, T/C [7]: 97.5%
viability, T/C [8]: 112%
viability, T/C [9]: 113%
viability, T/C [10]: 83.6%
viability, T/C [11]: 85.2%
viability, T/C [12]: 70.8%
viability, T/C [13]: 103%
viability, T/C [14]: 93.7%
viability, T/C [15]: 110%
viability, T/C [16]: 95.1%
viability, T/C [17]: 80.7%
viability, T/C [18]: 71.4%
viability, T/C [19]: 101%
viability, T/C [20]: 103%
viability, T/C [21]: 95.6%
viability, T/C [22]: 76.5%
viability, T/C [23]: 77.7%
viability, T/C [24]: 64.6%
viability, T/C [25]: 98.1%
viability, T/C [26]: 79.8%
viability, T/C [27]: 89.1%
viability, T/C [28]: 86.7%
viability, T/C [29]: 76.5%
viability, T/C [30]: 56.6%

Nc1ccccc1NC(=O)c1ccc(CNC(=O)OCc2cccnc2)cc1 + NC1CCC(NC2CC2c2ccccc2)CC1
IC50 (second compound 0.1 µM): 246 nM
IC50 (second compound 0.316 µM): 258 nM
IC50 (second compound 1 µM): 292 nM
IC50 (second compound 3.16 µM): 252 nM
IC50 (second compound 10 µM): 170 nM
viability, T/C (second compound 0.1 µM, first compound 0.00949 µM): 97.2%
viability, T/C (second compound 0.1 µM, first compound 0.03 µM): 88.6%
viability, T/C (second compound 0.1 µM, first compound 0.0949 µM): 69%
viability, T/C (second compound 0.1 µM, first compound 0.3 µM): 46.3%
viability, T/C (second compound 0.1 µM, first compound 0.949 µM): 23.8%
viability, T/C (second compound 0.1 µM, first compound 3 µM): 9.78%
viability, T/C (second compound 0.316 µM, first compound 0.00949 µM): 109%
viability, T/C (second compound 0.316 µM, first compound 0.03 µM): 90.8%
viability, T/C (second compound 0.316 µM, first compound 0.0949 µM): 74.4%
viability, T/C (second compound 0.316 µM, first compound 0.3 µM): 45.5%
viability, T/C (second compound 0.316 µM, first compound 0.949 µM): 25%
viability, T/C (second compound 0.316 µM, first compound 3 µM): 10.4%
viability, T/C (second compound 1 µM, first compound 0.00949 µM): 101%
viability, T/C (second compound 1 µM, first compound 0.03 µM): 97%
viability, T/C (second compound 1 µM, first compound 0.0949 µM): 75.6%
viability, T/C (second compound 1 µM, first compound 0.3 µM): 48%
viability, T/C (second compound 1 µM, first compound 0.949 µM): 27.3%
viability, T/C (second compound 1 µM, first compound 3 µM): 10.3%
viability, T/C (second compound 3.16 µM, first compound 0.00949 µM): 98.9%
viability, T/C (second compound 3.16 µM, first compound 0.03 µM): 78.5%
viability, T/C (second compound 3.16 µM, first compound 0.0949 µM): 69.7%
viability, T/C (second compound 3.16 µM, first compound 0.3 µM): 47%
viability, T/C (second compound 3.16 µM, first compound 0.949 µM): 26.5%
viability, T/C (second compound 3.16 µM, first compound 3 µM): 10.8%
viability, T/C (second compound 10 µM, first compound 0.00949 µM): 86.2%
viability, T/C (second compound 10 µM, first compound 0.03 µM): 71.6%
viability, T/C (second compound 10 µM, first compound 0.0949 µM): 57.2%
viability, T/C (second compound 10 µM, first compound 0.3 µM): 42.4%
viability, T/C (second compound 10 µM, first compound 0.949 µM): 28.6%
viability, T/C (second compound 10 µM, first compound 3 µM): 9.2%

O=C(c1cc(Cc2n[nH]c(=O)c3ccccc23)ccc1F)N1CCN(C(=O)C2CC2)CC1 + NC1CCC(NC2CC2c2ccccc2)CC1
IC50 (second compound 0.1 µM): > 10000 nM
IC50 (second compound 0.316 µM): > 10000 nM
IC50 (second compound 1 µM): > 10000 nM
IC50 (second compound 3.16 µM): > 10000 nM
IC50 (second compound 10 µM): > 10000 nM
viability, T/C [5]: 110%
viability, T/C [6]: 116%
viability, T/C (second compound 0.1 µM, first compound 0.316 µM): 104%
viability, T/C (second compound 0.1 µM, first compound 1 µM): 102%
viability, T/C (second compound 0.1 µM, first compound 3.16 µM): 92.9%
viability, T/C (second compound 0.1 µM, first compound 10 µM): 90.5%
viability, T/C [11]: 101%
viability, T/C [12]: 105%
viability, T/C (second compound 0.316 µM, first compound 0.316 µM): 105%
viability, T/C (second compound 0.316 µM, first compound 1 µM): 101%
viability, T/C (second compound 0.316 µM, first compound 3.16 µM): 98.2%
viability, T/C (second compound 0.316 µM, first compound 10 µM): 89.7%
viability, T/C [17]: 103%
viability, T/C [18]: 103%
viability, T/C (second compound 1 µM, first compound 0.316 µM): 106%
viability, T/C (second compound 1 µM, first compound 1 µM): 88%
viability, T/C (second compound 1 µM, first compound 3.16 µM): 95.3%
viability, T/C (second compound 1 µM, first compound 10 µM): 82%
viability, T/C [23]: 95.6%
viability, T/C [24]: 101%
viability, T/C (second compound 3.16 µM, first compound 0.316 µM): 93%
viability, T/C (second compound 3.16 µM, first compound 1 µM): 100%
viability, T/C (second compound 3.16 µM, first compound 3.16 µM): 88.5%
viability, T/C (second compound 3.16 µM, first compound 10 µM): 74.2%
viability, T/C [29]: 92.4%
viability, T/C [30]: 97%
viability, T/C (second compound 10 µM, first compound 0.316 µM): 96.3%
viability, T/C (second compound 10 µM, first compound 1 µM): 83.2%
viability, T/C (second compound 10 µM, first compound 3.16 µM): 79%
viability, T/C (second compound 10 µM, first compound 10 µM): 61.1%
